Experimental data reported in article PMC11472320, “Computationally Driven Discovery of a BCR-ABL1 Kinase Inhibitor with Activity in Multidrug-Resistant Chronic Myeloid Leukemia” (Journal of Medicinal Chemistry, 2024).
Read-outs that look alike come from different tables or passages of the source.

What was measured:
[1] = cited from earlier work
[2] = tested on: MDCKII-MDR1 cells; conditions: cited from earlier work
[3] = in vitro; conditions: human, Caco-2
[4] = molecular target: cSRC wt (Homo sapiens, UniProt P12931); experiment: KinaseProfiler enzymatic radiometric kinase assay
[5] = Lipophilicity logD7.4; format: physicochemical; conditions: pH 7.4
[6] = tested on: MDCKII-MDR1 cells; experiment: MDCKII-MDR1 permeability; conditions: for Recovery% (BL-AP) / efflux ratio: Table S7
[7] = Plasma protein binding by equilibrium dialysis; format: in vitro ADME; conditions: mouse plasma; for recovery / remaining at 6 h / fraction unbound: both sexes, CD-1; for fraction unbound: read-out: %Bound (converted)
[8] = Plasma protein binding by equilibrium dialysis; format: in vitro ADME; conditions: human plasma; for fraction unbound / recovery / remaining at 6 h: both sexes
[9] = molecular target: mutant BCR-ABL1 kinases; experiment: Biochemical kinase inhibition, summary statements; parameters: species or system human; conditions: read-out: IC50 against mutant BCR-ABL1 kinases
[10] = tested on: MDR1; experiment: in vitro; conditions: dog, MDCK-MDR1
[11] = in vitro; conditions: dog, MDCK-MDR1
[12] = tested on: MDR1 (P-gp); experiment: in vitro; conditions: dog, MDCK-MDR1
[13] = molecular target: BCR-ABL1 wt (Homo sapiens, UniProt P00519); experiment: KinaseProfiler enzymatic radiometric kinase assay; conditions: read-out: Kinase IC50 BCR-ABL1 wt; [ATP] = 10 µM, n = 2
[14] = tested on: Caco-2 cells; experiment: Caco-2 permeability
[15] = Aqueous solubility; format: physicochemical; conditions: pH 7.4
[16] = Metabolic stability in hepatocytes; format: in vitro ADME, human; conditions: for hepatocyte CLint: both sexes, read-out: HEPClint (H); for hepatocyte CLint / t1/2 (H): human hepatocytes
Text: (§1) Metabolic stability in hepatocytes
(§2) Table S4. Hepatocyte details used in the hepatocyte stability assay.
(§3) Human Hepatocytes, Mixed-Gender BiolVT (Cat No. X008001)
(§4) Mouse Hepatocytes, Male-Gender BiolVT (Cat No. M005052)

[17] = molecular target: T1, hERG potassium ion channel (Homo sapiens, UniProt Q12809); experiment: hERG safety evaluation by manual patch-clamp (HEK 293); format: cell-based; conditions: mean ± SEM in Table S11
T1 construct: host or cells: HEK 293
Text: hERG Safety evaluation by manual patch-clamp system
aIC50 values are presented as the mean ± SEM, n = 3 independent replicates unless otherwise
𝜇M) and run in triplicate. cValues a s previously reported in Ref. 1 .dMean of n = 2 independent
Points indicate the mean, and error bars indicate
the SD; n ≥ 2 independent replicates. IC 50 values ( 𝜇M) are reported beside the dose -response
curves and represent the mean ± SEM.

[18] = tested on: K562 cells; experiment: Cell viability assay (CellTiter-Glo); format: cell-based, human
[19] = Metabolic stability in hepatocytes; format: in vitro ADME, mouse
Text: as §1, §2, §3, §4

cSRC wt, sequence (P12931 whole entry): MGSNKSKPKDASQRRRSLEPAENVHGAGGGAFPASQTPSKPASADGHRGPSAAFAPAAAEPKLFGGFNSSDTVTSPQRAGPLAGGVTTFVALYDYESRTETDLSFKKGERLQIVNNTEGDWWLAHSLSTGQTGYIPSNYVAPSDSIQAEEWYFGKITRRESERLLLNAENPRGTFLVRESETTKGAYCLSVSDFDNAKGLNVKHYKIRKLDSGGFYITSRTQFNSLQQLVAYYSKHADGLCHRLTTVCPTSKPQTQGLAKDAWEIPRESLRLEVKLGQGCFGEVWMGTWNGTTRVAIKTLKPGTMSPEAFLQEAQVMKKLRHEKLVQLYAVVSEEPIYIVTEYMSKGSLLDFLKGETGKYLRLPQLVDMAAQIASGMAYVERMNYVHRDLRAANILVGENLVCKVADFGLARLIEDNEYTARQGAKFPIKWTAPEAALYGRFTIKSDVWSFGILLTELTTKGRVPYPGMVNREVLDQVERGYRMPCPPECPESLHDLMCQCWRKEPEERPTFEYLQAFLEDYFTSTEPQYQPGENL
BCR-ABL1 wt, sequence (P00519 27-1130 limits assumed): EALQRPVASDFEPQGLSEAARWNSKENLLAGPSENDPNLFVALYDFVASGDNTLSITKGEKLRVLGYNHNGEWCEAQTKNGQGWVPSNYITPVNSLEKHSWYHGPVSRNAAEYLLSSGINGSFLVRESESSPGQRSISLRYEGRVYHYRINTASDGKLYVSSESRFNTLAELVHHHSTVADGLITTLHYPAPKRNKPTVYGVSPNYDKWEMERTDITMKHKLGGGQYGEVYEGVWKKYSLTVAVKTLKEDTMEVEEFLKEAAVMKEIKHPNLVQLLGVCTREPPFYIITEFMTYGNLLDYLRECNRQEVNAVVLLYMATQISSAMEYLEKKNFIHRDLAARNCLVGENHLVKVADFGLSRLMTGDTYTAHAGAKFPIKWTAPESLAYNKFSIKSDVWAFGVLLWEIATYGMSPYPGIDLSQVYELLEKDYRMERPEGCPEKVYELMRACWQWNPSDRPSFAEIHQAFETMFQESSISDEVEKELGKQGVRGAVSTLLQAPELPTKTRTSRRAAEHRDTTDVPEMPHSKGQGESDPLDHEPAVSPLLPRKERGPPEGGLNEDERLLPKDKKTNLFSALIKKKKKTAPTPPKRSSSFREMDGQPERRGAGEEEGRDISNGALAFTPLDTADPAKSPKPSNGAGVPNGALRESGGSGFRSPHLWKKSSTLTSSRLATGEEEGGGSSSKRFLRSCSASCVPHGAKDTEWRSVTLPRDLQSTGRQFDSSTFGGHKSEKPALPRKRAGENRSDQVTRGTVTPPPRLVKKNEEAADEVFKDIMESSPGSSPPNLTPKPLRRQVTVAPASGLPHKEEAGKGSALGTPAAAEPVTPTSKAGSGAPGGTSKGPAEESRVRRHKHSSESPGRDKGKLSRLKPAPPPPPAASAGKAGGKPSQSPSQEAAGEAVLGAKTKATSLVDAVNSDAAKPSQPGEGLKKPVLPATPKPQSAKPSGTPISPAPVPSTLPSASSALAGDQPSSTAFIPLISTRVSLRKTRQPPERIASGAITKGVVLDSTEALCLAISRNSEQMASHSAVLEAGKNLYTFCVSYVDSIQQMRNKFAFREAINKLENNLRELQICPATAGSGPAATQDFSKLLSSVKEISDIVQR
T1 sequence (Q12809 whole entry): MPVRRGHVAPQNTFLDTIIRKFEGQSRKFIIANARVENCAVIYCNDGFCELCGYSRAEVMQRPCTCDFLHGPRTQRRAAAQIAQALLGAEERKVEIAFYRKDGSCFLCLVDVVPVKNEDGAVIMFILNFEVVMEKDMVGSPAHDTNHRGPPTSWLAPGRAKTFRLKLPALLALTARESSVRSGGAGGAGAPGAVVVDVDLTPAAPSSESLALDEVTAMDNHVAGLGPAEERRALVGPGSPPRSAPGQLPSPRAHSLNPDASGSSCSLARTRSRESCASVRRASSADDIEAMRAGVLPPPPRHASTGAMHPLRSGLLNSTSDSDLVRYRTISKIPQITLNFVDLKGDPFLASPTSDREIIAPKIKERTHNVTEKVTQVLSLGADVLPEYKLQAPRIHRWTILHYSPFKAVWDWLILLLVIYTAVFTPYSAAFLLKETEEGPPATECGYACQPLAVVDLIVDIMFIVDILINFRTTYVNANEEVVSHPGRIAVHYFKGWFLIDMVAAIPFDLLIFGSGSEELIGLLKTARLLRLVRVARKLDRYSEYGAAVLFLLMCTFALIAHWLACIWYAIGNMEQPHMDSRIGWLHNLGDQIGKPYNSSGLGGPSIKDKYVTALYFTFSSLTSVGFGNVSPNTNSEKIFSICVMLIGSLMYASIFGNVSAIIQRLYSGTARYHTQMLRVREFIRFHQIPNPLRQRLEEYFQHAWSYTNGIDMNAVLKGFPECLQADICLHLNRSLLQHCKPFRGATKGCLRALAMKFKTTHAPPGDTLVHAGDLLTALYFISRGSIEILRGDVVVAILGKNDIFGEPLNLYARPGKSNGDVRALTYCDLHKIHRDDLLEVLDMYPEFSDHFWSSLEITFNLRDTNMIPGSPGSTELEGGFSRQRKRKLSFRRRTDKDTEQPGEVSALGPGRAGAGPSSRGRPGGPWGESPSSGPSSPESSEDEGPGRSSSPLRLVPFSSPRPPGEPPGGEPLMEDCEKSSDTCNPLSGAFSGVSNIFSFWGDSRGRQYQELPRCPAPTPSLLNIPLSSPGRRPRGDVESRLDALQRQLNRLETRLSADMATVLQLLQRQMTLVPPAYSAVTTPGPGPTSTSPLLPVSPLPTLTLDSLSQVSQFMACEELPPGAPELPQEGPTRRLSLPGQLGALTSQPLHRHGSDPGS

COc1cc(Nc2c(C#N)cnc3cc(OCCON4CCN(C)CC4)c(OC)cc23)c(Cl)cc1Cl [5a]
Micronucleus [1]: Negative

COc1cc2ncnc(Nc3ccc(F)c(Cl)c3)c2cc1OCCON1CCN(C)CC1 [6a]
MDCKII-MDR1 Efflux Ratio [2]: 8.7
P-gp efflux status [2]: P-gp Substrate

COc1cc2c(Nc3cccc(OC)c3Cl)c(C#N)cnc2cc1OCCON1CCN(C)CC1 [12a, 4-((2-Chloro-3-methoxyphenyl)amino)-6-methoxy-7-(2-((4-methylpiperazin-1-yl)oxy)ethoxy)quinoline-3-carbonitrile]
Papp A→B [3]: 6.46 ×10⁻⁶ cm/s
Papp B→A [3]: 23.1 ×10⁻⁶ cm/s
efflux ratio [3]: 3.6
recovery [3]: 76.2%
IC50 [4]: 14 nM
logD [5]: 2.7
enhancement in permeability in MDCKII-MDR1 cells relative to bosutinib [6]: 31 fold
Recovery% (BL-AP) [6]: 91.60%
efflux ratio [6]: 3.22
recovery [7]: 92%
remaining at 6 h [7]: 96.7%
fraction unbound [7]: 0.119
%Unbound [7]: 11.93%
fraction unbound [8]: 0.0737
recovery [8]: 92.5%
remaining at 6 h [8]: 97.8%
%Unbound [8]: 7.37%
IC50 [9]: ≥ 15 nM
Papp A→B [10]: 12.5 ×10⁻⁶ cm/s
Papp B→A [10]: 39 ×10⁻⁶ cm/s
efflux ratio [10]: 3.1
recovery [11]: 95%
Papp A→B [12]: 12.5 ×10⁻⁶ cm/s
Papp B→A [12]: 39 ×10⁻⁶ cm/s
IC50 [13]: 20 nM
Recovery% (BL-AP) ([14]; Table S9): 87.19%
efflux ratio ([14]; Table S9): 3.58
Caco-2 Papp (a-b) [14]: 6.5 ×10⁻⁶ cm/s
Caco-2 Papp (b-a) [14]: 23.1 ×10⁻⁶ cm/s
Aq. Sol. [15]: 123 µM
Remaining Percentages ([16]; 0.5 min): 100.00%
Remaining Percentages ([16]; 15 min): 87.31%
Remaining Percentages ([16]; 30 min): 80.64%
Remaining Percentages ([16]; 60 min): 60.46%
Remaining Percentages ([16]; 90 min): 46.43%
Remaining Percentages ([16]; 120 min): 35.84%
hepatocyte CLint [16]: 17.2 µL/min/1e6 cells
t1/2 (H) [16]: 1.34 h
IC50 [17]: 5160 nM

COc1cc2c(Nc3cccc(OC)c3F)c(C#N)cnc2cc1OCCON1CCN(C)CC1 [13a, 4-((2-Fluoro-3-methoxyphenyl)amino)-6-methoxy-7-(2-((4-methylpiperazin-1-yl)oxy)ethoxy)quinoline-3-carbonitrile]
Papp A→B [3]: 2.72 ×10⁻⁶ cm/s
Papp B→A [3]: 33.6 ×10⁻⁶ cm/s
efflux ratio [3]: 12.4
recovery [3]: 84.8%
IC50 [4]: 34 nM
logD [5]: 2.6
Recovery% (BL-AP) [6]: 105.61%
efflux ratio [6]: 7.26
fraction unbound [8]: 0.13
recovery [8]: 87.8%
remaining at 6 h [8]: 98.3%
%Unbound [8]: 12.97%
IC50 [9]: ≥ 15 nM
Papp A→B [10]: 7.53 ×10⁻⁶ cm/s
Papp B→A [10]: 54.4 ×10⁻⁶ cm/s
efflux ratio [10]: 7.3
recovery [11]: 93.1%
Papp A→B [12]: 7.5 ×10⁻⁶ cm/s
Papp B→A [12]: 54.4 ×10⁻⁶ cm/s
IC50 [13]: 19 nM
Recovery% (BL-AP) ([14]; Table S9): 92.56%
efflux ratio ([14]; Table S9): 12.36
Caco-2 Papp (a-b) [14]: 2.7 ×10⁻⁶ cm/s
Caco-2 Papp (b-a) [14]: 33.6 ×10⁻⁶ cm/s
Aq. Sol. [15]: 29 µM
Remaining Percentages ([16]; 0.5 min): 100.00%
Remaining Percentages ([16]; 15 min): 97.02%
Remaining Percentages ([16]; 30 min): 95.67%
Remaining Percentages ([16]; 60 min): 80.41%
Remaining Percentages ([16]; 90 min): 67.22%
Remaining Percentages ([16]; 120 min): 54.89%
hepatocyte CLint [16]: 10.3 µL/min/1e6 cells
t1/2 (H) [16]: 2.243 h

COc1cc(Nc2c(C#N)cnc3cc(OCCON4CCN(C)CC4)c(OC)cc23)ccc1Cl [14a]
Papp A→B [3]: 1.99 ×10⁻⁶ cm/s
Papp B→A [3]: 37.4 ×10⁻⁶ cm/s
efflux ratio [3]: 18.7
IC50 [4]: 2 nM
logD [5]: 3.1
Recovery% (BL-AP) [6]: 77.51%
efflux ratio [6]: 6.05
Papp A→B [10]: 4.08 ×10⁻⁶ cm/s
Papp B→A [10]: 24.7 ×10⁻⁶ cm/s
efflux ratio [10]: 6
recovery [11]: 75.4%
Papp A→B [12]: 4.1 ×10⁻⁶ cm/s
Papp B→A [12]: 24.7 ×10⁻⁶ cm/s
IC50 [13]: < 1 nM
Recovery% (AP-BL) ([14]; Table S9): 65.43%
Recovery% (BL-AP) ([14]; Table S9): 92.37%
efflux ratio ([14]; Table S9): 18.96
Caco-2 Papp (a-b) [14]: 2 ×10⁻⁶ cm/s
Caco-2 Papp (b-a) [14]: 37.4 ×10⁻⁶ cm/s
Aq. Sol. [15]: 7 µM
Remaining Percentages ([16]; 0.5 min): 100.00%
Remaining Percentages ([16]; 15 min): 83.13%
Remaining Percentages ([16]; 30 min): 68.12%
Remaining Percentages ([16]; 60 min): 50.16%
Remaining Percentages ([16]; 90 min): 37.41%
Remaining Percentages ([16]; 120 min): 25.52%
hepatocyte CLint [16]: 22.3 µL/min/1e6 cells
t1/2 (H) [16]: 1.04 h
IC50 ([18]; Homo sapiens, K562, 72 h, read-out: K562 Cell Line IC50 (95% CI), 72 h, n = 3, unadjusted for FBS): 218 nM
IC50 ([18]; read-out: K562 Cell Line IC50 (95% CI), 72 h, n = 3, unadjusted for FBS): 186 nM

COc1cc(Cl)ccc1Nc1c(C#N)cnc2cc(OCCON3CCN(C)CC3)c(OC)cc12 [15a, 4-((4-Chloro-2-methoxyphenyl)amino)-6-methoxy-7-(2-((4-methylpiperazin-1-yl)oxy)ethoxy)quinoline-3-carbonitrile]
Remaining Percentages ([19]; 0.5 min): 100.00%
Remaining Percentages ([19]; 15 min): 55.53%
Remaining Percentages ([19]; 30 min): 28.57%
Remaining Percentages ([19]; 60 min): 13.26%
Remaining Percentages ([19]; 90 min): 6.75%
Remaining Percentages ([19]; 120 min): 2.89%
Papp A→B [3]: 0.71 ×10⁻⁶ cm/s
Papp B→A [3]: 4.44 ×10⁻⁶ cm/s
efflux ratio [3]: 6.3
recovery [3]: 72.2%
IC50 [4]: 11 nM
logD [5]: 3.1
Recovery% (BL-AP) [6]: 72.29%
recovery [7]: 95.9%
remaining at 6 h [7]: 106%
fraction unbound [7]: 0.0971
%Unbound [7]: 9.71%
fraction unbound [8]: 0.0773
recovery [8]: 95.8%
remaining at 6 h [8]: 99.4%
%Unbound [8]: 7.73%
Papp B→A [10]: 24.8 ×10⁻⁶ cm/s
efflux ratio [10]: 4.2
recovery [11]: 84.5%
Papp A→B [12]: 5.9 ×10⁻⁶ cm/s
Papp B→A [12]: 24.8 ×10⁻⁶ cm/s
IC50 [13]: 6 nM
Recovery% (BL-AP) ([14]; Table S9): 78.22%
efflux ratio ([14]; Table S9): 6.24
Caco-2 Papp (a-b) [14]: 0.7 ×10⁻⁶ cm/s
Caco-2 Papp (b-a) [14]: 4.4 ×10⁻⁶ cm/s
Aq. Sol. [15]: 0.8 µM
Remaining Percentages ([16]; 0.5 min): 100.00%
Remaining Percentages ([16]; 15 min): 78.44%
Remaining Percentages ([16]; 30 min): 63.53%
Remaining Percentages ([16]; 60 min): 43.29%
Remaining Percentages ([16]; 90 min): 27.95%
Remaining Percentages ([16]; 120 min): 20.14%
hepatocyte CLint [16]: 26.8 µL/min/1e6 cells
t1/2 (H) [16]: 0.862 h
IC50 [17]: 4360 nM

COc1cc2ncnc(Nc3cccc(Cl)c3F)c2cc1OC(=O)N1CCN(C)C[C@H]1C [AZD3759]
MDCKII-MDR1 Efflux Ratio [2]: 0.4
P-gp efflux status [2]: Not a P-gp Substrate
